Measured values reported in patent publication US9725465B2, “Biaryl acetamide compounds and methods of use thereof” (Ambit Biosciences Corporation, priority 2013, dated 2017).

How the values were obtained:
KIT kinase = KIT kinase (Homo sapiens (Human), UniProt P10721); assay: Competition binding assay (Kd), KIT; settings: competition binding
Procedure: In certain embodiments, competition binding assays were performed as described in Fabian et al., Nature Biotechnology 2005, 23, 329-336.
Competition binding assays used herein were developed, validated and performed as described in Fabian et al., Nature Biotechnology 2005, 23, 329-336. Kinases were produced as fusions to T7 phage (See, Fabian et al. or WO04/015142) or alternatively, the kinases were expressed in HEK-293 cells and subsequently tagged with DNA for PCR detection (See, WO08/005,310). […] The liganded beads were blocked with excess biotin and washed with blocking buffer (SeaBlock (Pierce), 1% BSA, 0.05% Tween 20, 1 mM DTT) to remove unbound ligand and to reduce non-specific binding. […] Test compounds were prepared as 100× stocks in DMSO and diluted into the aqueous environment. Kds were determined using an eleven point threefold serial dilutions. DMSO or control compounds were was added to control assays lacking a test compound. […] The kinase concentration in the eluates was measured by quantitative PCR. […]

FLT3 kinase = FLT3 kinase (Homo sapiens (Human), UniProt P36888); assay: Competition binding assay (Kd), FLT3; settings: competition binding
Sequence of FLT3 kinase (P36888 27-993): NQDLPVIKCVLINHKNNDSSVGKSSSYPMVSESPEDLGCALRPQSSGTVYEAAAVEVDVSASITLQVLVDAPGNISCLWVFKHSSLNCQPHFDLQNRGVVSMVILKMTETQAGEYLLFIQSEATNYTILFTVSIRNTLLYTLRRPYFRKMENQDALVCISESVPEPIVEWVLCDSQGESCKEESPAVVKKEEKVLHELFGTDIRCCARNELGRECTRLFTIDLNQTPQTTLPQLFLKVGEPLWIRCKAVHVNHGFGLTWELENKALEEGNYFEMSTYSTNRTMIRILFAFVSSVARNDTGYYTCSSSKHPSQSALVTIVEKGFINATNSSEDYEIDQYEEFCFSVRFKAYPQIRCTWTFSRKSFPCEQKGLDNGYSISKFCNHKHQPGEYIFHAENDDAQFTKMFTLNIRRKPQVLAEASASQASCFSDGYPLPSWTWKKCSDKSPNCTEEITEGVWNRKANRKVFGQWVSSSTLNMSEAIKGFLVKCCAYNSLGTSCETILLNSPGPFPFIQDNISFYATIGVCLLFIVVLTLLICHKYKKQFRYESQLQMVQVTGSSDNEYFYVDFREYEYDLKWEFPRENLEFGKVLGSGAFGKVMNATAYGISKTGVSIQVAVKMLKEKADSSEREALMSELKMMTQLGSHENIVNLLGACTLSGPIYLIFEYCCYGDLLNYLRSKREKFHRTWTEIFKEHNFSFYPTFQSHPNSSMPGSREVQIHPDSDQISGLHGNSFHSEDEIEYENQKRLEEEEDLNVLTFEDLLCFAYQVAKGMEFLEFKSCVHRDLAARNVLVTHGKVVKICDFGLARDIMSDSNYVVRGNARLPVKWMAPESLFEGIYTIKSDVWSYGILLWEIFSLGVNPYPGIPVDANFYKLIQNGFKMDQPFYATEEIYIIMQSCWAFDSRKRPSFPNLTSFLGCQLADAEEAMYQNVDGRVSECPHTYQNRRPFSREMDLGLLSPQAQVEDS

Sequence of KIT kinase (P10721 26-976): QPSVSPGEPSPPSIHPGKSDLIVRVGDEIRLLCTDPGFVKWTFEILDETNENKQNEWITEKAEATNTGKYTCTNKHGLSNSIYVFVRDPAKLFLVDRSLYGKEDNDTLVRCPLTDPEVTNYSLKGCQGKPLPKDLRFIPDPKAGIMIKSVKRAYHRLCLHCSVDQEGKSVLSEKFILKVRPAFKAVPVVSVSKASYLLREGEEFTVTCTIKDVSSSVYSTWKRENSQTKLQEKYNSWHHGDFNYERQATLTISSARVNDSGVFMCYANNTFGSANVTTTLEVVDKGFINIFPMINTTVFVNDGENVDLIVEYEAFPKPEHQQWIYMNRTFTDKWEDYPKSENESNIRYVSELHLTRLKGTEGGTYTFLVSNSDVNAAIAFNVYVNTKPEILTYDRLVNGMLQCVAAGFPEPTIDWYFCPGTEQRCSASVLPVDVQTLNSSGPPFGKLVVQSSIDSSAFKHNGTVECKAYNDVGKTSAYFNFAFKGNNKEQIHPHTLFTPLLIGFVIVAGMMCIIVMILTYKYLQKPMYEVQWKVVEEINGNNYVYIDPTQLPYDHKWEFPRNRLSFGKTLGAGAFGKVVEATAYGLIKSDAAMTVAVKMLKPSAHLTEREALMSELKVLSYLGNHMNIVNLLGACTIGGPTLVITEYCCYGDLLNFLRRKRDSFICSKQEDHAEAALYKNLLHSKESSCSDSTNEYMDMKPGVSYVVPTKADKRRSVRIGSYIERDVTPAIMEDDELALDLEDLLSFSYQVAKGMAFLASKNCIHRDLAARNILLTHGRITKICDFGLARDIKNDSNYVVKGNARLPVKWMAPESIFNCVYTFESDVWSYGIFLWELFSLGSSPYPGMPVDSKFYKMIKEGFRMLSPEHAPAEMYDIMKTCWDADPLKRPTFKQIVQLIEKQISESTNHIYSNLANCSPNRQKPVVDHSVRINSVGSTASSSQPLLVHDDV

Kd (KIT kinase) [nM] | Kd (FLT3 kinase) [nM] | Structure (SMILES)
< 5 | < 5 | COc1cc2ncc(-c3ccc(CC(=O)Nc4cc(C5(C(F)(F)F)CC5)on4)c(F)c3)nc2cc1OCCCN1CCOCC1 [Example 213, 2-[2-fluoro-4-[6-methoxy-7-(3-morpholino-propoxy)quinoxalin-2-yl]phenyl]-N-[5-[1-(trifluoro-methyl)cyclopropyl]isoxazol-3-yl]acetamide]
< 5 | < 5 | COc1cc2ncc(-c3ccc(CC(=O)Nc4cc(C5(C(F)(F)F)CC5)on4)c(F)c3)nc2cc1OCCCNC(C)=O [Example 214, 2-[4-[7-(3-acetamidopropoxy)-6-methoxy-quinoxalin-2-yl]-2-fluoro-phenyl]-N-[5-[1-(trifluoromethyl)cyclo-propyl]isoxazol-3-yl]acetamide]
< 5 | < 5 | COc1cc2nc(-c3ccc(CC(=O)Nc4cc(C(C)(C)C)on4)cc3)cnc2cc1OCCN1CCOCC1 [Example 215, N-(5-tert-butylisoxazol-3-yl)-2-[4-[7-methoxy-6-(2-morpholino-ethoxy)quinoxalin-2-yl]phenyl]acetamide]
< 5 | < 5 | COc1cc2nc(-c3ccc(CC(=O)Nc4cc(C5(C(F)(F)F)CC5)on4)c(F)c3)cnc2cc1OCCN1CCS(=O)(=O)CC1 [Example 216, 2-[4-[6-[2-(1,1-dioxo-1,4-thiazinan-4-yl)ethoxy]-7-methoxy-quinoxalin-2-yl]-2-fluoro-phenyl]-N-[5-[1-(trifluoromethyl)cyclo-propyl]isoxazol-3-yl]acetamide]
< 5 | < 5 | COc1cc2ncc(-c3ccc(CC(=O)Nc4cc(C(C)(C)C(F)(F)F)on4)cc3F)nc2cc1OC [Example 217, 2-[4-(6,7-dimethoxyquinoxalin-2-yl)-3-fluoro-phenyl]-N-[5-(2,2,2-trifluoro-1,1-dimethyl-ethyl)isoxazol-3-yl]acetamide]
< 5 | < 5 | COc1cc2ncc(-c3cc(F)c(CC(=O)Nc4cc(C5(C(F)(F)F)CC5)on4)cc3F)nc2cc1OC [Example 218, 2-[4-(6,7-dimethoxyquinoxalin-2-yl)-2,5-difluoro-phenyl]-N-[5-[1-(trifluoro-methyl)cyclopropyl]isoxazol-3-yl]acetamide]
< 5 | < 5 | COc1cc2ncc(-c3cc(F)c(CC(=O)Nc4cc(C(C)(C)C(F)(F)F)on4)cc3F)nc2cc1OC [Example 219, 2-[4-(6,7-dimethoxyquinoxalin-2-yl)-2,5-difluoro-phenyl]-N-[5-(2,2,2-trifluoro-1,1-dimethyl-ethyl)isoxazol-3-yl]acetamide]
< 5 | < 5 | CC(=O)NCCOc1cc2ncc(-c3ccc(CC(=O)Nc4cc(C(C)(C)C(F)(F)F)on4)c(F)c3)nc2cc1OCCNC(C)=O [Example 220, 2-[4-[6,7-bis(2-acetamidoethoxy)quinoxalin-2-yl]-2-fluoro-phenyl]-N-[5-(2,2,2-trifluoro-1,1-dimethyl-ethyl)isoxazol-3-yl]acetamide]
< 5 | < 5 | CC(=O)N(C)CCOc1cc2ncc(-c3ccc(CC(=O)Nc4cc(C(C)(C)C(F)(F)F)on4)c(F)c3)nc2cc1OCCN(C)C(C)=O [Example 221, 2-[4-[6,7-bis[2-[acetyl(methyl)amino]ethoxy]quinoxalin-2-yl]-2-fluoro-phenyl]-N-[5-(2,2,2-trifluoro-1,1-dimethyl-ethyl)isoxazol-3-yl]acetamide]
< 5 | < 5 | COc1cc2nc(-c3ccc(CC(=O)Nc4cc(C5(C(F)(F)F)CC5)on4)c(F)c3)cnc2cc1OCCCS(C)(=O)=O [Example 222, 2-[2-fluoro-4-[7-methoxy-6-(3-methylsulfonyl-propoxy)quinoxalin-2-yl]phenyl]-N-[5-[1-(trifluoromethyl)cyclo-propyl]isoxazol-3-yl]acetamide]

Continued, molecule first:

Structure (SMILES) | Kd (KIT kinase) [nM] | Kd (FLT3 kinase) [nM]
COc1cc2cc(-c3ccc(CC(=O)Nc4cc(C(C)(C)C(F)(F)F)on4)c(F)c3)cnc2cc1OCCN1CC[C@@H](O)C1 [Example 199, 2-[2-fluoro-4-[7-[2-[(3R)-3-hydroxypyrrolidin-1-yl]ethoxy]-6-methoxy-3-quinolyl]phenyl]-N-[5-(2,2,2-trifluoro-1,1-dimethyl-ethyl)isoxazol-3-yl]acetamide] | < 5 | < 5
COc1cc2cc(-c3ccc(CC(=O)Nc4cc(C(C)(C)C(F)(F)F)on4)c(F)c3)cnc2cc1OCCN(C)CCO [Example 200, 2-[2-fluoro-4-[7-[2-[2-hydroxy-ethyl(methyl)amino]ethoxy]-6-methoxy-3-quinolyl]phenyl]-N-[5-(2,2,2-trifluoro-1,1-dimethyl-ethyl)isoxazol-3-yl]acetamide] | < 5 | < 5
COc1cc2cc(-c3ccc(CC(=O)Nc4cc(C(C)(C)C(F)(F)F)on4)c(F)c3)cnc2cc1OCCNCCO [Example 201, 2-[2-fluoro-4-[7-[2-(2-hydroxyethylamino)ethoxy]-6-methoxy-3-quinolyl]phenyl]-N-[5-(2,2,2-trifluoro-1,1-dimethyl-ethyl)isoxazol-3-yl]acetamide] | < 5 | < 5
COc1cc2ncc(-c3ccc(CC(=O)Nc4cc(C5(C(F)(F)F)CC5)on4)c(F)c3)nc2cc1OC[C@@H](C)O [Example 202, 2-[2-fluoro-4-[7-[(2R)-2-hydroxypropoxy]-6-methoxy-quinoxalin-2-yl]phenyl]-N-[5-[1-(trifluoromethyl)cyclo-propyl]isoxazol-3-yl]acetamide] | < 5 | < 5
COc1cc2ncc(-c3ccc(CC(=O)Nc4cc(C(C)(C)C(F)(F)F)on4)c(F)c3)nc2cc1OCCCN1CCOCC1 [Example 203, 2-[2-fluoro-4-[6-methoxy-7-(3-morpholino-propoxy)quinoxalin-2-yl]phenyl]-N-[5-(2,2,2-trifluoro-1,1-dimethyl-ethyl)isoxazol-3-yl]acetamide] | < 5 | < 5
COc1cc2ncc(-c3ccc(CC(=O)Nc4cc(C(C)(C)C(F)(F)F)on4)c(F)c3)cc2cc1OCCN [Example 204, 2-[4-[6-(2-aminoethoxy)-7-methoxy-3-quinolyl]-2-fluoro-phenyl]-N-[5-(2,2,2-trifluoro-1,1-dimethyl-ethyl)isoxazol-3-yl]acetamide] | < 5 | < 5
COc1cc2ncc(-c3ccc(CC(=O)Nc4cc(C(C)(C)C(F)(F)F)on4)c(F)c3)cc2cc1OCCNC(C)=O [Example 205, 2-[4-[6-(2-acetamidoethoxy)-7-methoxy-3-quinolyl]-2-fluoro-phenyl]-N-[5-(2,2,2-trifluoro-1,1-dimethyl-ethyl)isoxazol-3-yl]acetamide] | < 5 | < 5
COc1cc2ncc(-c3ccc(CC(=O)Nc4cc(C(C)(C)C(F)(F)F)on4)c(F)c3)cc2cc1OCCN1CCC(O)CC1 [Example 206, 2-[2-fluoro-4-[6-[2-(4-hydroxy-1-piperidyl)ethoxy]-7-methoxy-3-quinolyl]phenyl]-N-[5-(2,2,2-trifluoro-1,1-dimethyl-ethyl)isoxazol-3-yl]acetamide] | < 5 | < 5
COc1cc2ncc(-c3ccc(CC(=O)Nc4cc(C(C)(C)C(F)(F)F)on4)c(F)c3)cc2cc1OCCN1CCC(F)(F)CC1 [Example 207, 2-[4-[6-[2-(4,4-difluoro-1-piperidyl)ethoxy]-7-methoxy-3-quinolyl]-2-fluoro-phenyl]-N-[5-(2,2,2-trifluoro-1,1-dimethyl-ethyl)isoxazol-3-yl]acetamide] | 20 to 50 | < 5
COc1cc2nc(-c3ccc(CC(=O)Nc4cc(C5(C(F)(F)F)CC5)on4)c(F)c3)cnc2cc1OC[C@@H](C)O [Example 208, 2-[2-fluoro-4-[6-[(2R)-2-hydroxypropoxy]-7-methoxy-quinoxalin-2-yl]phenyl]-N-[5-[1-(trifluoro-methyl)cyclopropyl]isoxazol-3-yl]acetamide] | < 5 | < 5
COc1cc2nc(-c3ccc(CC(=O)Nc4cc(C(C)(C)C(F)(F)F)on4)c(F)c3)cnc2cc1OCCCN1CCOCC1 [Example 209, 2-[2-fluoro-4-[7-methoxy-6-(3-morpholino-propoxy)quinoxalin-2-yl]phenyl]-N-[5-(2,2,2-trifluoro-1,1-dimethyl-ethyl)isoxazol-3-yl]acetamide] | < 5 | < 5
COc1cc2nc(-c3ccc(CC(=O)Nc4cc(C(C)(C)C(F)(F)F)on4)c(F)c3)cnc2cc1OCCn1cncn1 [Example 210, 2-[2-fluoro-4-[7-methoxy-6-[2-(1,2,4-triazol-1-yl)ethoxy]quinoxalin-2-yl]phenyl]-N-[5-(2,2,2-trifluoro-1,1-dimethyl-ethyl)isoxazol-3-yl]acetamide] | < 5 | < 5
COc1cc2nc(-c3ccc(CC(=O)Nc4cc(C(C)(C)C(F)(F)F)on4)c(F)c3)cnc2cc1OCCn1cnnc1 [Example 211, 2-[2-fluoro-4-[7-methoxy-6-[2-(1,2,4-triazol-4-yl)ethoxy]quinoxalin-2-yl]phenyl]-N-[5-(2,2,2-trifluoro-1,1-dimethyl-ethyl)isoxazol-3-yl]acetamide] | < 5 | < 5
COc1cc2nc(-c3ccc(CC(=O)Nc4cc(C5(C(F)(F)F)CC5)on4)c(F)c3)cnc2cc1OCCCN1CCOCC1 [Example 212, 2-[2-fluoro-4-[7-methoxy-6-(3-morpholino-propoxy)quinoxalin-2-yl]phenyl]-N-[5-[1-(trifluoro-methyl)cyclopropyl]isoxazol-3-yl]acetamide] | < 5 | < 5
